This passage reports EC50 results from patent US8148375B2, “(Cyclopropylphenyl)phenyloxamides, method for the production thereof, and use of same as a medicament” (Sanofi-Aventis, priority 2007, dated 2012).

Molecules are shown by their SMILES.

For this assay, the target named is T1, GPCR GPR40 (Homo sapiens, UniProt O14842).
T1 construct: expressed in transfected cells; host or cells: HEK293
As to the kind of experiment: In-vitro FLIPR assay with recombinant cells which express the GPCR GPR40. The assay is classed as cell-based. Particulars: agonist-induced intracellular Ca2+ change in recombinant HEK293 cells expressing GPR40; relative to 10 μM linoleic acid = 100%. How it is done:
In-vitro FLIPR Assay with Recombinant Cells which Express the GPCR GPR40
Function-testing assays were carried out by means of the FLIPR technique (“fluorescence imaging plate reader”, Molecular Devices Corp.). For this purpose, agonist-induced alterations in the intracellular concentration of Ca^2+ in recombinant HEK293 cells which express the GPCR GPR40 were determined.
For the investigations, cells were seeded in 96-well microtiter plates (60 000 cells/well) and left to grow overnight. The medium was removed and the cells were incubated in buffer which contained the fluorescent dye Fluo-4. After this loading with dye, the cells were washed, test substance was added and alterations in the intracellular Ca^2+ concentration were measured in the FLIPR instrument. Results have been depicted as percentage alteration relative to the control (0%: no test substance added; 100%: 10 μM reference agonist linoleic acid added) used to calculate dose/activity plots and EC50 values were determined.

For orientation: EC50 means the concentration at which the effect is half-maximal.

T1 sequence (O14842 whole entry): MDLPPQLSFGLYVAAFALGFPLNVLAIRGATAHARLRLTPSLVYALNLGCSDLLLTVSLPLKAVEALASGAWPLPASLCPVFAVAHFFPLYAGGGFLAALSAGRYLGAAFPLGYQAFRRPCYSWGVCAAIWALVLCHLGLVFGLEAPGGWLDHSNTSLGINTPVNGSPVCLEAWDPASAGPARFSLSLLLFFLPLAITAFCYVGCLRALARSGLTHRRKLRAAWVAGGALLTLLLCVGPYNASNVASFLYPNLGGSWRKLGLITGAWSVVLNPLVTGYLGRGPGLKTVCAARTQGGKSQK

As to `O=C(Nc1ccc(C2CC2C(=O)O)cc1)C(=O)Nc1ccc(Cl)cc1C(F)(F)F` (centres unmarked) [Example 2], the EC50 came out at 700 nM.

Regarding `O=C(Nc1ccc(C2CC2C(=O)O)cc1)C(=O)Nc1cccc(Cl)c1Cl` (centres unmarked) [Example 3], the EC50 came out at 800 nM.
